Laboratory results: ChEMBL document CHEMBL1201862, “PubChem BioAssay data set” (2004)
Calls of active or inactive are those of the source.

Tests used:
HEK293 [1] = experiment: NOD1 signaling inhibitors, primary screen, cell-based, luminescence, uHTS (AID 1578); assay type: functional; settings: Homo sapiens
HEK293 [2] = experiment: cells; assay type: functional, cell-based; settings: Homo sapiens
HEK293 [3] = experiment: cells; assay type: functional, cell-based; settings: Homo sapiens; remark: listed apart in the source
HEK293 [4] = experiment: NOD2 signaling inhibitors in MDP-stimulated cells, cell-based, uHTS, luminescence (AID 2001); assay type: functional; settings: Homo sapiens
[5] = target: T1, Replicative DNA helicase DnaB (Mycobacterium tuberculosis, UniProt P9WMR3); experiment: DnaB intein splicing inhibitors, dose response, biochemical, cell-free fluorescence (AID 449749); assay type: functional
T1 sequence (P9WMR3 whole entry): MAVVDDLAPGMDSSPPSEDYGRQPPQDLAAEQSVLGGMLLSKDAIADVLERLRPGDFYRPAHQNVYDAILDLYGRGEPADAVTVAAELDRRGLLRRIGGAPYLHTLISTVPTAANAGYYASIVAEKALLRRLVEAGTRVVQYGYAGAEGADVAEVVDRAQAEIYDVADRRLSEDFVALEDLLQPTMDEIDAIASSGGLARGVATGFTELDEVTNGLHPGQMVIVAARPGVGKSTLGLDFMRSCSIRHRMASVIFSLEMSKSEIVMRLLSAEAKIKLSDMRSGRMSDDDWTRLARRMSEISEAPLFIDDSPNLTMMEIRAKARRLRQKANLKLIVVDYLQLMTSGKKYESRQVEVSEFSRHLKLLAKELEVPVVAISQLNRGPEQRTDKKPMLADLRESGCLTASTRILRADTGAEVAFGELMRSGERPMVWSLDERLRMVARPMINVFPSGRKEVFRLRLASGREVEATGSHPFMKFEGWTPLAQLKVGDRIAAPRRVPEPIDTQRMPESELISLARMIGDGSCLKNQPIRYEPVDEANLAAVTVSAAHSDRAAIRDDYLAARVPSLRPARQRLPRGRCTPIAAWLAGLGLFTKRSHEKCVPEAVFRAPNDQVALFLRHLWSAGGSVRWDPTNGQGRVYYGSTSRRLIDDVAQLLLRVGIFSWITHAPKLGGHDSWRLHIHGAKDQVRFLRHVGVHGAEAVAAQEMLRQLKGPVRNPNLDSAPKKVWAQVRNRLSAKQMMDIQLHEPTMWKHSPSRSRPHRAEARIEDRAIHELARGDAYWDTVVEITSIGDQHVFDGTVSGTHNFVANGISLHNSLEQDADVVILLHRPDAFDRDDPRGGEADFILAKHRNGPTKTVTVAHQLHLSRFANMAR

Protein RecA = target: T2, Protein RecA (Mycobacterium tuberculosis, UniProt P9WHJ3); experiment: Fluorescence Cell-Free Homogeneous Dose Retest to Identify Inhibitors of RecA-Intein Splicing Activity. [Related pubchem assays (depositor defined):AID2097, AID2223, AID489010, AID492950]; assay type: functional
T2 sequence (P9WHJ3 whole entry): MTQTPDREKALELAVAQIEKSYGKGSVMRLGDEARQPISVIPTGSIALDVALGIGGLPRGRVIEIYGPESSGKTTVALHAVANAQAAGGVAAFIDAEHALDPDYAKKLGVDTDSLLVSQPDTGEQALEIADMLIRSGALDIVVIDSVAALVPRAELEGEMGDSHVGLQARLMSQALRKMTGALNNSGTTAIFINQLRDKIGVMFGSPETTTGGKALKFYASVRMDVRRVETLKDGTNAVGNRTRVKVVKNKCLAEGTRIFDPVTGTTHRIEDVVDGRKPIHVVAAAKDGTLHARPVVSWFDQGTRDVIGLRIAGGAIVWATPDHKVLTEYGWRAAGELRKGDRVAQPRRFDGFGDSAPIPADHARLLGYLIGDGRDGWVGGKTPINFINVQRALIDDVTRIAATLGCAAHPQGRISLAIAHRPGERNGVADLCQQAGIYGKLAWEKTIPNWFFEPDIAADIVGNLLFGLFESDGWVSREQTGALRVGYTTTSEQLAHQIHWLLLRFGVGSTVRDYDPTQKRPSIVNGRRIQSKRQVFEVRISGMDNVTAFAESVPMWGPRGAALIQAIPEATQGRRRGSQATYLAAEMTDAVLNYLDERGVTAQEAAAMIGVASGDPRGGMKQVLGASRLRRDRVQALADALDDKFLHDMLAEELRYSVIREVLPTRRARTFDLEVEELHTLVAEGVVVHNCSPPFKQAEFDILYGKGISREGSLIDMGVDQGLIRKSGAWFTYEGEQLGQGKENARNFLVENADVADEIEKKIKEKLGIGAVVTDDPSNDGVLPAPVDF

HEK293 [6] = experiment: cells; settings: Homo sapiens
HEK293 [7] = experiment: cells; settings: Homo sapiens; remark: listed apart in the source
[8] = insulin promoter down-regulators in MIN6 cells, imaging, high-content screening, mouse beta cells (AID 1628); assay type: functional
BJ [9] = experiment: cytotoxicity toward BJ-TERT fibroblasts, dose response, cell-based, RAS-independent, luminescence (AID 1933); assay type: functional; settings: Homo sapiens
[10] = cytotoxicity in MIN6 insulinoma cells, dose response, cytotoxicity control, cell-based, mouse insulinoma (AID 2122); assay type: functional;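 also: confirmatory high-throughput counterscreen run to flag cytotoxic compounds; mouse MIN-6 beta cells carrying an insulin promoter eGFP reporter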
BJ [11] = experiment: cells; assay type: functional, cell-based; settings: Homo sapiens
[12] = cytotoxicity toward DRD oncogenic fibroblasts, dose response, cell-based, non-viral oncogenic, luminescence (AID 1934); assay type: functional; settings: Homo sapiens
[13] = Luminescence Cell-Based Dose Retest to Confirm Inhibitors of Cancer Stem Cells. [Related pubchem assays (depositor defined):AID2717, AID2721]; assay type: functional; settings: Homo sapiens
INS1 = experiment: beta cell apoptosis inhibitors, cytokine rescue, dose response, luminescence, retest (AID 449756); assay type: functional, cell-based; settings: Rattus norvegicus;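 also: cell death triggered by IL-1 beta plus TNF-alpha plus IFN-gamma mixture; protective hits raise ATP signal compared with cytokine alone wells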
[14] = inhibitors of HIV Env-driven cell fusion, dose response, cherry-pick (AID 652057); assay type: functional, cell-based
[15] = ZM109 Env clade C HIV-1 fusion inhibitors, dose response, HeLa effector, CEM target cells, luciferase, cherry-pick (AID 652058); assay type: functional, cell-based
[16] = off-target signal loss in HeLa-CEM21 co-culture – HeLa F-luc CTL cells, cherry-picked, counter-screen for HIV-1 Env fusion inhibitor project, dose response (AID 652040); assay type: functional, cell-based;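 also: potency for signal decrease marking cytotoxic or nonspecific inhibition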
[17] = inhibitors of clade B AD8 Env fusion, dose response, cell-based, cherry-pick (AID 652062); assay type: functional;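 also: luciferase signal from cell-cell fusion driven by HIV-1 clade B AD8 Env; potency is for inhibitors of fusion seen as a drop in luminescence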
[18] = THP-1 cell cytotoxicity, dose response, cytotoxicity control for non-replicating M. tuberculosis project (AID 489025); assay type: functional
[19] = Vero E6 cell cytotoxicity, dose response, cytotoxicity control for non-replicating M. tuberculosis project, secondary assay (AID 492998); assay type: functional, VeroE6; settings: Vero C1008
[20] = target: T3, Microphthalmia-associated transcription factor (Homo sapiens, UniProt O75030); experiment: TRPM1 promoter luciferase signal decrease, dose response, MITF inhibitor project, cell-based, SK-MEL-5, cherry-picked, set 3 (AID 493073); assay type: functional
T3 sequence (O75030 whole entry): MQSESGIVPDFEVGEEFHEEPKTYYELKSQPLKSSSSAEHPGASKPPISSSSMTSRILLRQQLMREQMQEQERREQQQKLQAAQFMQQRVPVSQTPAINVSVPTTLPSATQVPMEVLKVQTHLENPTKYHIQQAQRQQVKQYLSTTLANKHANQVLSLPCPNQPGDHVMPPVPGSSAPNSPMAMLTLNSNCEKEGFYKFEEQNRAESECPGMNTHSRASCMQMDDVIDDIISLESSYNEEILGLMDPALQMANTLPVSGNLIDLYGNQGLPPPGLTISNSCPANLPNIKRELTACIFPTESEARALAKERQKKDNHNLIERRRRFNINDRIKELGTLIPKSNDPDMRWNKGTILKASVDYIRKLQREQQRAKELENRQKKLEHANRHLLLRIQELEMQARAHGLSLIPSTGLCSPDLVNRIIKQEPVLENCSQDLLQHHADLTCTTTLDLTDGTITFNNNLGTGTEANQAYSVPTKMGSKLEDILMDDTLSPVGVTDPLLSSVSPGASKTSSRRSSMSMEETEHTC

cells = assay type: functional
HEK293 [21] = experiment: cytotoxicity in HEK293T NF-kB-Luc cells, SAR follow-up, cytotoxicity control for NF-kB activator project, cell-based, resazurin fluorescence (AID 493251); assay type: functional; settings: Homo sapiens
Jurkat = experiment: SAR Analysis of small molecule inhibitors of T-cell specific antigen receptor-induced NF-kB activation in a Jurkat cell line using a luminescence assay - Set 2. [Related pubchem assays (depositor defined):AID435003, AID435012, AID465]; assay type: functional, cell-based
HEK293 [22] = experiment: SAR Analysis of small molecule inhibitors of T-cell specific antigen receptor-induced NF-kB activation in a HEK-293T cell line using a luminescence assay - Set 2. [Related pubchem assays (depositor defined):AID435003, AID435012, AID489026]; assay type: functional, cell-based
[23] = target: Dual specificity tyrosine-phosphorylation-regulated kinase 1A (Rattus norvegicus, UniProt Q63470); assay type: biochemical, Homo sapiens
[24] = target: T4, Tyrosine-protein phosphatase non-receptor type 7 (Homo sapiens, UniProt P35236); assay type: functional
T4 sequence (P35236 whole entry): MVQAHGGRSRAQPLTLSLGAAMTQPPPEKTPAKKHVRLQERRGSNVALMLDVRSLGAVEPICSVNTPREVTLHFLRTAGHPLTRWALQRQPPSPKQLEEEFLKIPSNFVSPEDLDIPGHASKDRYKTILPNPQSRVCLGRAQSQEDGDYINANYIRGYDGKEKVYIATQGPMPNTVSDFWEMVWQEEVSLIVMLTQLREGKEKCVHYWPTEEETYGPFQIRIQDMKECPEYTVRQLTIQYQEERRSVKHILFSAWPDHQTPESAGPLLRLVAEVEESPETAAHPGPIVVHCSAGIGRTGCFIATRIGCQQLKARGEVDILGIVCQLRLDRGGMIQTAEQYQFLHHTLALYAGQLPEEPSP

[25] = target: Glyceraldehyde-3-phosphate dehydrogenase (Homo sapiens, UniProt P04406)
Chain of Glyceraldehyde-3-phosphate dehydrogenase (P04406 whole entry): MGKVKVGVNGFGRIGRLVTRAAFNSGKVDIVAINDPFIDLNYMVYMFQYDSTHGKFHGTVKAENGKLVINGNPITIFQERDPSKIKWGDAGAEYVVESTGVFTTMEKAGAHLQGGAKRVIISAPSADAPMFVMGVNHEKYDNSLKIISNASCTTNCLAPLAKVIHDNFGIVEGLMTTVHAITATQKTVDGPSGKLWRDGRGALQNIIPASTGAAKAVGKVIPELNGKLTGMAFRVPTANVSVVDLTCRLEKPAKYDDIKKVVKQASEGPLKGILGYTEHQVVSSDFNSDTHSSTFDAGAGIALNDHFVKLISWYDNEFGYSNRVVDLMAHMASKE

[26] = target: Heat shock cognate 71 kDa protein (Homo sapiens, UniProt P11142); experiment: In Vitro Hsc70 Dose Response Fluorescence Polarization Assay. [Related pubchem assays: 1072 ]
Chain of Heat shock cognate 71 kDa protein (P11142 whole entry): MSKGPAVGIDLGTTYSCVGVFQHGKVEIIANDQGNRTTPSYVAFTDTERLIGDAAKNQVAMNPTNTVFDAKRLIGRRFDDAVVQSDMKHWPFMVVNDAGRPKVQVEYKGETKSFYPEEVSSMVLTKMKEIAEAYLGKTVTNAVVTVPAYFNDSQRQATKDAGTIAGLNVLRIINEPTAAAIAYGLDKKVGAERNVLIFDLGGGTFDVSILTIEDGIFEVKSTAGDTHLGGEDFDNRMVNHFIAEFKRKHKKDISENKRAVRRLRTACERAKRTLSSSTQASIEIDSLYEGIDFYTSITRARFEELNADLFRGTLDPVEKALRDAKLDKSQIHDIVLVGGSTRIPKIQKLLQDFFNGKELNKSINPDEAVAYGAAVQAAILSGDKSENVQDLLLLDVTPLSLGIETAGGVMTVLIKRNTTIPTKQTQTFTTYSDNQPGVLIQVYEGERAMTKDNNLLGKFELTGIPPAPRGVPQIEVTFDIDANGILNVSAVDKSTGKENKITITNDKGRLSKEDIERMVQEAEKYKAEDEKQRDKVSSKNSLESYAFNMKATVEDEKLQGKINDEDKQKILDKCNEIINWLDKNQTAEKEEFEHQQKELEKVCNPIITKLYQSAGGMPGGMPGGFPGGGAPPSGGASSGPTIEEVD

[27] = target: Heat shock 70 kDa protein 1A (Homo sapiens, UniProt P0DMV8); experiment: Hsp70 inhibitors, SAR follow-up, biochemical, fluorescence polarization (AID 1072)
Chain of Heat shock 70 kDa protein 1A (P0DMV8 whole entry): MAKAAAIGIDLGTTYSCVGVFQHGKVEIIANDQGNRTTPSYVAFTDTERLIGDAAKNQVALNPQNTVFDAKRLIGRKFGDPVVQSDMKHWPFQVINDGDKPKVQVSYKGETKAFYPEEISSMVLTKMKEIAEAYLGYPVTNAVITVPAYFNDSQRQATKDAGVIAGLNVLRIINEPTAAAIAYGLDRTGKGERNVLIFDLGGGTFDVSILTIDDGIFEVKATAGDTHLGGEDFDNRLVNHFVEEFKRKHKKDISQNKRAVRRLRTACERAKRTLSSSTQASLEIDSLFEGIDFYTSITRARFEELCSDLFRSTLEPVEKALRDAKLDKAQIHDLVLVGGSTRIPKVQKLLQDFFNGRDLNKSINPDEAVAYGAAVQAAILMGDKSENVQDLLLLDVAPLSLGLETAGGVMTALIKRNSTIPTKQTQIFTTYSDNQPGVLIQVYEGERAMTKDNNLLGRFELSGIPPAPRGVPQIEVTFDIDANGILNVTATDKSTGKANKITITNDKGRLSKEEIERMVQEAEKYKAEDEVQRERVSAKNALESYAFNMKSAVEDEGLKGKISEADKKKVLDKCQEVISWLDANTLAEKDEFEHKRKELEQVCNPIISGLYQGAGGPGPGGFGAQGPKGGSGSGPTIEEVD

[28] = target: T5, Dual specificity protein phosphatase 6 (Rattus norvegicus, UniProt Q64346)
T5 sequence (Q64346 whole entry): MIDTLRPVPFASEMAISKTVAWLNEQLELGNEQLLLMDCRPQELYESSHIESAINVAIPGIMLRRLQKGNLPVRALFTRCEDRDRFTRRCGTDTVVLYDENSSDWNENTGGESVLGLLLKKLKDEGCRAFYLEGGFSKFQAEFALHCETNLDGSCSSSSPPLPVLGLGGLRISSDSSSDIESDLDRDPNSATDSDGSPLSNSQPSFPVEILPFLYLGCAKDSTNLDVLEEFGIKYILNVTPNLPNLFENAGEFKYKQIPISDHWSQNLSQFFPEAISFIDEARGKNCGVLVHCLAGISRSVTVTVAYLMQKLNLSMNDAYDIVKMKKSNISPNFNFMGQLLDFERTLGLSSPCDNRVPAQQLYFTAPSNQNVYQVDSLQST

[29] = target: T5, Dual specificity protein phosphatase 6; assay type: functional

O=C(CCl)Nc1cc(S(=O)(=O)N2CCCCCC2)ccc1Cl
inactive: IC50 (HEK293 [3]) > 20 µM | IC50 (HEK293 [4]) > 20 µM | EC50 (HEK293 [6]) > 59.6 µM | EC50 (HEK293 [7]) > 59.6 µM
active: EC50 (HEK293 [1]) 9.38 µM | IC50 (HEK293 [2]) 7.86 µM | AC50 [5] 9.12 µM | EC50 (Protein RecA) 2.03 µM

COc1ccc(C)cc1NS(=O)(=O)c1ccc(NC(=O)CN(c2cc([N+](=O)[O-])ccc2C)S(C)(=O)=O)cc1
active: IC50 [8] 1.1 µM | EC50 (BJ [9]) 21 µM | IC50 [10] 1.2 µM | EC50 (BJ [11]) 2.75 µM | EC50 [12] 19.7 µM | AC50 [13] 1.8 µM | AC50 (INS1) 0.846 µM

CCN1C(=O)[C@H]2[C@@H](c3ccc(C)cc3)N3C(=O)N(c4cccc(Cl)c4)C(=O)[C@@]3(CC)[C@H]2C1=O
active: AC50 [14] 2.33 µM | AC50 [15] 2.06 µM | AC50 [16] 3.98 µM | AC50 [17] 4.82 µM
inactive: EC50 (HEK293 [6]) > 59.6 µM | EC50 (HEK293 [7]) > 59.6 µM

Cc1cccc(NC(=O)c2ccc([N+](=O)[O-])o2)c1C
inactive: IC50 (HEK293 [21]) > 80 µM | IC50 (HEK293 [22]; Homo sapiens, HEK293) 69.2 µM | IC50 (HEK293 [22]; hek293) 63.1 µM
active: CC50 [18] 20.5 µM | CC50 [19] 8.76 µM | AC50 [20] 14.8 µM | IC50 (cells) 10.8 µM | IC50 (Jurkat; Homo sapiens, Jurkat) 17.8 µM | IC50 (Jurkat; jurkat) 14.6 µM

c1cncc(-c2nc3ccccc3[nH]2)c1
inactive: AC50 [23] > 120 µM

Cc1cc([N+](=O)[O-])cc2c1NC(C(=O)O)C1CC=CC21 (stereo not drawn)
inactive: IC50 [28] > 100 µM | IC50 [29] > 100 µM
> 100 µM (not active): IC50 [24] | IC50 [25]
active: IC50 [26] 117 µM | IC50 [27] 24.3 µM

O=C(O)C1Nc2ccccc2C2C=CCC12 (stereo not drawn)
active: IC50 [24] 6.05 µM | IC50 [27] 7.14 µM | IC50 [28] 50.8 µM | IC50 [29] 25.2 µM
> 100 µM (not active): IC50 [25] | IC50 [26]
